What was measured:
[1] = tested on: WT mice subjected to photothrombotic stroke in the motor cortex; assay: Infarct volume after photothrombotic stroke, intranasal treatment; assay type: in vivo, mouse; conditions: intranasal C3a daily days 7-21 post-stroke vs PBS; P=0.429
Method: Cortical photothrombosis was induced using the Rose Bengal method (Lee et al., 2007; Watson et al., 1985) with some modifications. Anesthesia was induced with isoflurane (Forene®, Abbott) in air and oxygen (1:1) initially at 5% and reduced to 2.5% during the surgical procedure. Body temperature was monitored by a rectal probe and maintained at 37° C. using a homeothermic control unit (Harvard Apparatus). Anesthetized mice were placed in a stereotaxic frame, the skull was exposed through a midline scalp incision and Rose Bengal (200 μl, 10 mg/ml solution in sterile saline, Sigma) was injected intraperitoneally. […] Mice were provided with moist mashed food placed on the floor of the home cage and their weight was monitored daily for 7 days after surgery. […]
Purified human C3a peptide (Complement Technologies) was diluted in sterile phosphate buffered saline (PBS) to a concentration of 200 nM and a total of 20 μl (10 μl/nostril; corresponding to approximately 1.13 μg/kg body weight) of peptide solution or PBS was given intranasally to awake, hand-restrained mice held in a supine position. […] For the assessment of potential systemic anaphylactic response due to intranasal C3a inoculation, body temperature was monitored using a rectal temperature probe (Harvard Apparatus) inserted approximately 4 mm into the rectum of awake mice restrained by the scruff. […]

GAP-43+ puncta = assay: GAP-43 immunostaining of cortex 21 days after stroke; assay type: in vivo, mouse
Method: For immunofluorescent evaluation, sections were deparaffinized, heated three times for 5 min in a microwave oven in 0.01 M citric buffer (pH 6.0), and blocked in PBS containing 0.05% Tween-20 (Sigma) and 1% in Bovine serum albumin (BSA, Sigma) for GAP-43 and synapsin I staining, 3% normal goat serum for VGLUT1 staining or 4% normal donkey serum for GAP-43 double stainings. Goat anti-synapsin la/b antibody (1:150; Santa Cruz, sc-7379) was followed by biotin-conjugated donkey anti-goat immunoglobulin (Ig) secondary antibody (1:200; Jackson Research Lab, 705-065-147) and Cy3-conjugated streptavidin (1:100; Sigma). Guinea pig anti-VGLUT1 (1:500; Millipore, AB5905) was followed by Alexa Fluor 488 goat anti-guinea pig Ig (1:500; Molecular Probes, A11073). For single staining, mouse anti-GAP-43 antibody (1:1000; Millipore, MAB347), was followed by biotinylated rabbit anti-mouse Ig secondary antibody (1:200; Dako, E0354) and Cy3-conjugated streptavidin (1:100; Sigma). […]
Highest signal intensity single plane images of immunostained sections were obtained by laser scanning confocal microscope (LSM TCS SP2, Leica Microsystems, ×63/NA 1.3 objective for synapsin I and GAP-43; and LSM 700, Carl Zeiss for VGLUT1 ×40/NA 1.3) at 1024×1024 pixels resolution. […] Three standard sections per animal in 160 μm intervals were analysed. […]
Single-stained images were analysed using MetaMorph® software (Molecular Devices, ver. 2.8.5) to obtain number, average size and intensity of positive punctuate structures per image. […] An experimenter blinded to experimental group performed all image acquisitions and quantifications.

Which results are given for “C3a: Purified human C3a peptide (Complement Technologies), C3a receptor agonist, amino acid sequence SEQ ID NO: 1”?
infarct volume [1]: no effect on infarct volume; increase in density of GAP-43+ puncta, ipsilesional motor cortex vs corresponding contralesional region (GAP-43+ puncta; C3a-treated mice, P=0.012): ~50%; increase in density of GAP-43+ puncta, ipsilesional motor cortex vs ipsilesional cortex of PBS-treated mice (GAP-43+ puncta; P=0.015): ~50%; average size of GAP-43+ puncta (GAP-43+ puncta; between experimental groups): did not differ between the experimental groups
